Reference: ChEMBL document CHEMBL1201862, “PubChem BioAssay data set” (2004)
The source made the active and inactive calls.

Columns and labels:
[1] = target: T1, Heat shock factor protein 1 (Mus musculus, UniProt P38532); experiment: enhancement of HSF1-driven luciferase signal – cell-based, NIH3T3, luminescence, dose retest, confirmation (AID 435004); assay type: functional;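 also: stress induced by proteasome inhibitor MG132 added 30 min after compound; luciferase reporter driven by HSF1 response element in NIH3T3 cells; actives raise luminescence as potentiators of the MG132 stress response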
T1 sequence (P38532 whole entry): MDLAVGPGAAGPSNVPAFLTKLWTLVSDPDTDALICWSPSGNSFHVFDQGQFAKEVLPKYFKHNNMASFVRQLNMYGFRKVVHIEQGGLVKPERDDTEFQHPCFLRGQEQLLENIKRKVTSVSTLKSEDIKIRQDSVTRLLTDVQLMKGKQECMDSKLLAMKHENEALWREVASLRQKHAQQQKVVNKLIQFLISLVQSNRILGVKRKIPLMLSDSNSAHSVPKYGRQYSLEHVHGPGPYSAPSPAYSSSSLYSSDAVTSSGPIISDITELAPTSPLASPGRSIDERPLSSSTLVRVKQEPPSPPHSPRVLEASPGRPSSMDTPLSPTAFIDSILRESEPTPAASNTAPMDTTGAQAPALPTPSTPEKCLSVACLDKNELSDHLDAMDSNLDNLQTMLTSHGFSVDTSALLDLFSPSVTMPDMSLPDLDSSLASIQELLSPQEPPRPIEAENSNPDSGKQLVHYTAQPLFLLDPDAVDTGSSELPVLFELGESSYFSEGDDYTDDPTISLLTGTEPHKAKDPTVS

[2] = target: Neurotensin receptor type 1 (Homo sapiens, UniProt P30989); assay type: functional;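 also: Image-based confirmatory dose-response assay measuring agonist activity at NTR1; NTR1-expressing U2OS osteosarcoma cells imaged for beta-arrestin GFP spot formation; agonist potency where compounds increase beta-arrestin recruitment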
Sequence of Neurotensin receptor type 1 (P30989 whole entry): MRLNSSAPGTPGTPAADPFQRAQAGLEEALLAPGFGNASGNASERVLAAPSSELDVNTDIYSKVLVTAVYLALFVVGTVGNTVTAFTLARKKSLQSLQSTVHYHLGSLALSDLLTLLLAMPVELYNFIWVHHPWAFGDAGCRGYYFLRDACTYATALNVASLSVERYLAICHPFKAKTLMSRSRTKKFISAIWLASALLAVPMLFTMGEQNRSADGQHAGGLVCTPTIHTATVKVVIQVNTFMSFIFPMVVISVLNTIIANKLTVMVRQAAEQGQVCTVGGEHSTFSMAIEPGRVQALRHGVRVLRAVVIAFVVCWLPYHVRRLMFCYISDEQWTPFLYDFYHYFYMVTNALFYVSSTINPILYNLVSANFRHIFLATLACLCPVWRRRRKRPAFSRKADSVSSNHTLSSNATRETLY

[3] = target: T2, Polyadenylate-binding protein 1 (Homo sapiens, UniProt P11940); experiment: blockers of PABP interaction with poly(A) – biochemical, fluorescence polarization, […] (AID 2014)
T2 sequence (P11940 whole entry): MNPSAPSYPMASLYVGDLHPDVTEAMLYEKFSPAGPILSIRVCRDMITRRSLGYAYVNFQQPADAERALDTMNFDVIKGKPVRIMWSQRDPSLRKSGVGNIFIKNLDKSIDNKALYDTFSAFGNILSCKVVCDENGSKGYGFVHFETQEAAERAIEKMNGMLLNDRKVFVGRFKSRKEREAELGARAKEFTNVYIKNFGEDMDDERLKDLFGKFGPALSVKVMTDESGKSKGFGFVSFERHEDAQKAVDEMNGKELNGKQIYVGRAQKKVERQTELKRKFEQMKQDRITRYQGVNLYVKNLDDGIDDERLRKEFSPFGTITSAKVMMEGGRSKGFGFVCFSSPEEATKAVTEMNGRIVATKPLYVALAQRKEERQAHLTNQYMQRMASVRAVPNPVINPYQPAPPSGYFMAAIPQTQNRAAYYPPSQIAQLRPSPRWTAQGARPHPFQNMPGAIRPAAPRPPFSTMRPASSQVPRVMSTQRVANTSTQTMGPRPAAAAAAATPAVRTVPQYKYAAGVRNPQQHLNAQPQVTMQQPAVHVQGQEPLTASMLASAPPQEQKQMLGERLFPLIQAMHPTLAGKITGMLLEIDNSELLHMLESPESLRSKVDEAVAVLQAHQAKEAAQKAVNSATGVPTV

[4] = target: T3, Eukaryotic translation initiation factor 4H (Homo sapiens, UniProt Q15056); experiment: eIF4H binding inhibition – biochemical, uHTS, fluorescence polarization, translation initiation inhibitor project, primary screen (AID 2012)
[5] = target: T3, Eukaryotic translation initiation factor 4H; experiment: inhibitors of translation initiation factor eIF4H – SAR follow-up (AID 435011); assay type: functional
[6] = target: DNA dC->dU-editing enzyme APOBEC-3G (Homo sapiens, UniProt Q9HC16); assay type: functional;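 also: Dose-response counterscreen measuring inhibition of APOBEC3G DNA deaminase activity, run while confirming APOBEC3A inhibitors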
Sequence of DNA dC->dU-editing enzyme APOBEC-3G (Q9HC16 whole entry): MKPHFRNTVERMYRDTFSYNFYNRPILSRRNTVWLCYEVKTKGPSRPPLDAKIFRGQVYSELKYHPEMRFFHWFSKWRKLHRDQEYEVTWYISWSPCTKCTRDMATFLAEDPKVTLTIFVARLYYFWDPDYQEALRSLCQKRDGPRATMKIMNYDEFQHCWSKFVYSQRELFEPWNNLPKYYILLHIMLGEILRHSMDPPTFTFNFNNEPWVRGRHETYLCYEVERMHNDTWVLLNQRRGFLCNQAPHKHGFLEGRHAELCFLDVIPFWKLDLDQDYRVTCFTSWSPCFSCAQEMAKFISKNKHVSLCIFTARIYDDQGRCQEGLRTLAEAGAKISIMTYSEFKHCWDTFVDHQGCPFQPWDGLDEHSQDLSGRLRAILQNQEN

[7] = target: DNA dC->dU-editing enzyme APOBEC-3A (Homo sapiens, UniProt P31941); experiment: Dose Response confirmation of small molecule APOBEC3A DNA Deaminase Inhibitors via a fluorescence-based single-stranded DNA deaminase assay. [Related pubchem assays (depositor defined):AID493011, AID493024]; assay type: functional
Sequence of DNA dC->dU-editing enzyme APOBEC-3A (P31941 whole entry): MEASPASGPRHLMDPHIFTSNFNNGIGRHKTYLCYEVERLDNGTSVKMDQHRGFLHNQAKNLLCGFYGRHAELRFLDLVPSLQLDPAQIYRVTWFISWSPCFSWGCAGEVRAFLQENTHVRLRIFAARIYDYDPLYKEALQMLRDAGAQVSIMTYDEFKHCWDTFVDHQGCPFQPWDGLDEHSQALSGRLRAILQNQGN

[8] = target: T2, Polyadenylate-binding protein 1; experiment: PABP inhibition in translation initiation, SAR follow-up (AID 435018); assay type: functional
[9] = target: Intestinal-type alkaline phosphatase (Homo sapiens, UniProt P09923); experiment: Dose Response confirmation of uHTS hits from a small molecule inhibitors of human intestinal alkaline phosphatase via a luminescent assay. [Related pubchem assays (depositor defined):AID2544, AID2574]; assay type: functional
Sequence of Intestinal-type alkaline phosphatase (P09923 whole entry): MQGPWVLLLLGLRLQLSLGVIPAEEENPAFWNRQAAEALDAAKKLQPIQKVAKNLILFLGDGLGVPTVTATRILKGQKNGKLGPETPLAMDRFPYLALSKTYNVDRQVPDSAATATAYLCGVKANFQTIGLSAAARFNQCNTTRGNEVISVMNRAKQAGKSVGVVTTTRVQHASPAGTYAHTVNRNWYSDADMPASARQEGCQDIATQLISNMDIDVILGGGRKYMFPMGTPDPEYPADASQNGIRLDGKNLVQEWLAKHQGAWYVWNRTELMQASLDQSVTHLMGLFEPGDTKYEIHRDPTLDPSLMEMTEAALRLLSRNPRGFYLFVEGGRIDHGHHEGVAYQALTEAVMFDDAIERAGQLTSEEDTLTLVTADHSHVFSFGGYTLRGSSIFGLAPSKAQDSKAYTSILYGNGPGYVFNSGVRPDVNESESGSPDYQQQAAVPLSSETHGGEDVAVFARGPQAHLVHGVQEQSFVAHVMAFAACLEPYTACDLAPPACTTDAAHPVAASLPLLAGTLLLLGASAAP

Aspartyl aminopeptidase = Aspartyl aminopeptidase (Plasmodium falciparum 3D7, UniProt Q8I2J3)
Sequence of Aspartyl aminopeptidase (Q8I2J3 whole entry): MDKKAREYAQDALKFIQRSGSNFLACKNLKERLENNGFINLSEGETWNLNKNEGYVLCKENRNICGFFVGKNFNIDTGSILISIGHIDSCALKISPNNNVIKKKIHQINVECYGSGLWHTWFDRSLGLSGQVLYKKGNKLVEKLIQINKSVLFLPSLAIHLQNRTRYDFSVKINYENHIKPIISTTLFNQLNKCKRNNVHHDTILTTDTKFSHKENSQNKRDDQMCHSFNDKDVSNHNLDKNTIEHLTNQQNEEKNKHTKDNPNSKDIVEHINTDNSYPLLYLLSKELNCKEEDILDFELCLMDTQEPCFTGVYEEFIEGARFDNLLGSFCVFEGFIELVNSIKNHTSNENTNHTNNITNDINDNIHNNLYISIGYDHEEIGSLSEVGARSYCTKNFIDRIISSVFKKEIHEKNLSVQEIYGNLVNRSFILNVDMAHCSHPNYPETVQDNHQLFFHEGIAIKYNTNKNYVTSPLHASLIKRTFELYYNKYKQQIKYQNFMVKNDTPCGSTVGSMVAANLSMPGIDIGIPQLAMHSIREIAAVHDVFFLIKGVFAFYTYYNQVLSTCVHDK

Procathepsin L = Procathepsin L (Homo sapiens, UniProt P07711)
Sequence of Procathepsin L (P07711 whole entry): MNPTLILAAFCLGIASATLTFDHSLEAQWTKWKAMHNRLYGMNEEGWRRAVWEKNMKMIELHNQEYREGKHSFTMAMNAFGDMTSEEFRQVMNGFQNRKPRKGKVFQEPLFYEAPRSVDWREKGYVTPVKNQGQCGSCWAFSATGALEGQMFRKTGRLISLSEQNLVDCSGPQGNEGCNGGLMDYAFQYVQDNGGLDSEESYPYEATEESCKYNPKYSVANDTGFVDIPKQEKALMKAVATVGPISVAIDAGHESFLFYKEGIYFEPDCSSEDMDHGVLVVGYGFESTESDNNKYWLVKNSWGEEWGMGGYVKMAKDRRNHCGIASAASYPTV

[10] = target: Melanin-concentrating hormone receptor 1 (Homo sapiens, UniProt Q99705); experiment: Fluorescence-based counterscreen for antagonists of the G-protein coupled receptor 7 (GPR7): cell-based high throughput dose response assay to identify antagonists of the melanin-concentrating hormone receptor 1 (MCHR1).; assay type: functional
Sequence of Melanin-concentrating hormone receptor 1 (Q99705 whole entry): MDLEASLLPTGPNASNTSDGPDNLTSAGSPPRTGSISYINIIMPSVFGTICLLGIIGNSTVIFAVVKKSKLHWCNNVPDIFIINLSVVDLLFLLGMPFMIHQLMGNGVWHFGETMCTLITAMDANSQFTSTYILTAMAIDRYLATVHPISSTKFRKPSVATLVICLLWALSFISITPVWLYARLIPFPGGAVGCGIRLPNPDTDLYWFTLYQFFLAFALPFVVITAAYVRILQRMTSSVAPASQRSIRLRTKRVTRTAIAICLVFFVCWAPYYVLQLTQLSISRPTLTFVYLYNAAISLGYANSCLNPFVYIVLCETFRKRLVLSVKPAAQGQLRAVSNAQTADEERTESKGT

[11] = target: T4, Neuropeptides B/W receptor type 1 (Homo sapiens, UniProt P48145); experiment: Fluorescence-based dose response cell-based high throughput screening assay to identify antagonists of the G-protein coupled receptor 7 (GPR7). [Related pubchem assays: 1952 (Screening assay (GPR7 antagonists).), 1880 (Summary AID.)]; assay type: functional
T4 sequence (P48145 whole entry): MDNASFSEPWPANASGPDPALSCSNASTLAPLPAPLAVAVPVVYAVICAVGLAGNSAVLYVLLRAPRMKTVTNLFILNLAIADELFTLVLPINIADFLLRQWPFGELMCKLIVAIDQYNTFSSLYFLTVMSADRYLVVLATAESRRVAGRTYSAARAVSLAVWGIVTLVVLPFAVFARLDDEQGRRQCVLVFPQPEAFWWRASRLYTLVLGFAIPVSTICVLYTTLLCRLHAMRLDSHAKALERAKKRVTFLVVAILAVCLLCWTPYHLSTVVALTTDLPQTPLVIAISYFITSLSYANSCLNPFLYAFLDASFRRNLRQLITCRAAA

Structure (SMILES): CCOc1cc(/C=C2/C(=O)ON=C2C)ccc1OCc1ccc(F)cc1
- EC50 [1]: 8.12 µM (active)
- EC50 [2]: 16.2 µM (active)

Structure (SMILES): Cc1ccc(OCC(=O)N/N=C/C=C/c2ccco2)cc1
- IC50 [3]: 45.5 µM (active)
- IC50 [4]: 15.6 µM (active)

Structure (SMILES): CC(C)NC(=O)C(C)N1CCN(S(=O)(=O)c2ccc3ccccc3c2)CC1 (stereo not drawn)
- IC50 [5]: 27.6 µM (active)
- IC50 [3]: 5.92 µM (active)
- IC50 [6]: 3.72 µM (active)
- IC50 [4]: 88.9 µM (active)
- IC50 [7]: 3.38 µM (active)
- IC50 [8]: 20.5 µM (active)

Structure (SMILES): CCn1c2ccccc2c2cc(NC(=O)c3coc(=O)c(Br)c3)ccc21
- IC50 [9]: 55.6 µM (inactive)

Structure (SMILES): CC(C)(C)NN/C=C1\C(=O)N(c2ccc(Cl)cn2)C(=O)c2ccccc21
- IC50 [9]: > 100 µM (inactive)

Structure (SMILES): CCOC(=O)c1ccc(NC(=O)Nn2cnnc2)cc1
- IC50 (Aspartyl aminopeptidase): 2.09 µM (active)
- IC50 (Procathepsin L): > 59.6 µM (not active)

Structure (SMILES): CCc1ccccc1N=C(S)Nn1cnnc1
- IC50 (Aspartyl aminopeptidase): 3.03 µM (active)
- IC50 (Procathepsin L): > 59.6 µM (not active)

Structure (SMILES): Cc1ccccc1N(CC(=O)NC1CCCCC1)C(=O)CCCC(=O)Nc1ccccn1
- IC50 [10]: > 43.8 µM (not active)
- IC50 [11]: > 43.8 µM (not active)
